Read-outs that look alike come from different tables or passages of the source.
Tests used:
[1] = Stopped-flow tyrosine fluorescence, Ca^2+ dissociation from S100A4 constructs; assay type: binding
Method: (§1) Stopped-flow measurements were carried out using an SX18-MV apparatus (Applied Photophysics Ltd., Leatherhead, UK) with a dead time of 1.5 ms.[40] Records were generally captured on a logarithmic time base. Absorption (turbidity) measurements were usually recorded using a 10-mm pathlength, while fluorescence was recorded with a 2-mm pathlength for excitation and emission. The stated concentrations of components refer to the reaction chamber after mixing, unless otherwise indicated. Tyrosine fluorescence was excited at 280 nm, and the emission was collected through a UG11 bandpass filter plus a 305-nm longpass filter.[18] Fluorescein fluorescence was excited at 480 nm, and the emission was detected through a 515-nm longpass filter. Quin-2 fluorescence was measured by excitation at 336 nm, and emission was collected with a 455-nm longpass filter. For simultaneous recording of light scatter, a second channel was monitored through a UG11 filter. Rate constants were obtained by fitting to single-exponential or double-exponential functions using Kaleidagraph (Synergy Software) or Applied Photophysics Pro-Data software. Modeling of kinetic schemes was performed using Berkeley Madonna software.
Dissociation of Ca2+ from wild type S100A4 (black), Y19F mutant (blue) and Y75F mutant (red) monitored by tyrosine fluorescence. 13 M of each S100A4 construct plus 100 µM Ca2+ was mixed with 200 µM EGTA (reaction chamber concentrations) and the tyrosine fluorescence monitored. The buffer was 20 mM NaCl, 10 mM HEPES, 2 mM DTT at pH 7.5 and 20 °C. Fits to a single exponential function yielded rate constants of 20 s-1, 113 s-1 and 45 s-1 for wild-type, Y19F mutant and Y75F mutant respectively. (d) Dissociation of Ca2+ from wild type S100A4 (black), E33Q mutant (blue) and D63N mutant (red) monitored by tyrosine fluorescence. 13 M of each S100A4 construct plus 15 M Ca2+ was mixed with 200 M EGTA (reaction chamber concentrations) and the tyrosine fluorescence monitored. Fits to a single exponential function yielded rate constants of 22 s-1 and 49 s-1 for wild-type and E33Q construct respectively, while that […]
The records for the mutants were vertically offset for clarity in both […]

Δ10-S100A4 = target: T1, Δ10-S100A4 (Homo sapiens, UniProt P26447); experiment: NMR ^1H,^15N HSQC titration of Δ10-S100A4 with myosin peptides; assay type: binding
T1 construct: truncated Δ10-S100A4, which lacks 10 C-terminal residues; made in house; host or cells: Escherichia coli (M9 minimal medium, 15N labelling)

[2] = Isothermal titration calorimetry of Ca^2+ binding to S100A4 constructs
Method: Fig. 2 ITC records for Ca^2+ binding to S100A4 constructs: (a) 75 μM wild type at 30 °C; (b) 75 μM wild type at 10 °C; (c) 75 μM E33Q construct at 30 °C; (d) 300 μM D63N construct at 30 °C. For mutant constructs data at 10 °C, see Fig. S1. All preparations were dialysed against the same buffer of 20 mM NaCl, 10 mM Hepes, and 2 mM DTT (pH 7.5).
ITC data were collected using a VP-ITC microcalorimeter (MicroCal Ltd., Northampton, MA) and analysed by fitting to a single-site binding equation or a two-site binding equation using MicroCal Origin software.

[3] = Stopped-flow Quin-2 fluorescence, Ca^2+ dissociation from / binding to S100A4 constructs (no target); details: single exponential fit, no target
Source text: In order to increase the signal-to-noise ratio of the Ca^2+ dissociation transients, we used Quin-2 as combined fluorescent indicator and high-affinity chelator.[19,20] These measurements confirmed that Ca^2+ dissociated from wild-type protein with a rate constant of 16 s^− 1 (Fig. 3a; cf. 20 s^− 1 for the tyrosine signal). Given the poor signal-to-noise ratio of the tyrosine signal, the difference is barely significant but may reflect the fact that the Quin-2 signal represents at least a two-step sequential reaction (Ca^2+ dissociation from S100AS4, followed by rapid binding to Quin-2).
Fig. 3 (a) Dissociation of Ca^2+ from wild-type S100A4 (black), E33Q mutant (blue), and D63N mutant (red), as monitored by Quin-2 fluorescence. […] The records for the mutants were vertically offset for clarity. (b) Ca^2+ binding to S100A4 as determined from the amplitude of the resolved transient (k ≈ 20 s^− 1) when 6.5 μM S100A4 was preincubated with various added [Ca^2+] and then mixed with 100 μM Quin-2. The amplitude was converted into a bound concentration from an independent calibration using the same Quin-2 solution and known free [Ca^2+]. […] While either model could account for the data, the measured stoichiometry from ITC (Table 1) favors the cooperative model.
as §1

[4] = 13 μM S100A4 + 100 μM Ca^2+ mixed with 200 μM EGTA, 20 mM NaCl, 10 mM Hepes, 2 mM DTT, pH 7.5, 20 °C
[5] = 10 °C and 30 °C, read-out: Kd for Ca^2+
[6] = 10 °C, 75 μM protein (D63N 300 μM), 20 mM NaCl, 10 mM Hepes, 2 mM DTT, pH 7.5
[7] = 30 °C, 75 μM protein (D63N 300 μM), 20 mM NaCl, 10 mM Hepes, 2 mM DTT, pH 7.5
[8] = first site, Ca^2+ binding, 30 °C, 75 μM protein (D63N 300 μM), 20 mM NaCl, 10 mM Hepes, 2 mM DTT, pH 7.5, read-out: K1d
[9] = first site, 10 °C, wild type and E33Q cooperative, read-out: K1d

T1 sequence (P26447 1-91 limits assumed, stated change not applied): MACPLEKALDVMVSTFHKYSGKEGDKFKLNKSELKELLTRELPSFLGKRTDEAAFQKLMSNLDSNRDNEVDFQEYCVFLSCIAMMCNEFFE

Substance | Ca^2+ dissociation rate constant (tyrosine) [1, 4] | Kd [2, 5] | n1 (Ca^2+ per monomer) [2, 6] | n1 (Ca^2+ per monomer) [2, 7] | Kd [2, 8] | Kd [2, 9] | Ca^2+ dissociation rate constant (Quin-2) [3] | further results
Y19F: S100A4 mutant, tyrosine 19 to phenylalanine | 113 s^− 1 |  |  |  |  |  |  | 
M15^C: myosin peptide G1924-G1938, acetylated N-terminus, amidated C-terminus (Ac-GDLPFVVPRRMARKG-NH2) |  |  |  |  |  |  |  | NMR exchange regime (Δ10-S100A4; 0.2 mM Δ10-S100A4, Ca^2+, 35 °C): fast exchange; affinity by NMR (Δ10-S100A4; 0.2 mM Δ10-S100A4, up to 9-fold molar excess of peptide): too low to be measured by NMR
Y75F: S100A4 mutant, tyrosine 75 to phenylalanine | 45 s^− 1 |  |  |  |  |  |  | 
E33Q: S100A4 mutant compromised in the EF1 Ca^2+ binding loop |  | 1 to 10 µM | 0.96 ± 0.09 Ca^2+ per monomer | 0.33 ± 0.03 Ca^2+ per monomer | 10.9 ± 1.9 µM | ~1 µM | 35 s^− 1 | Ca^2+ dissociation rate constant (tyrosine) ([1]; 13 μM S100A4 + 15 μM Ca^2+ mixed with 200 μM EGTA): 49 s^− 1
Δ10-S100A4: truncated S100A4, lacks 10 C-terminal residues |  |  |  |  |  |  |  | interaction in the absence of Ca^2+ (Δ10-S100A4; absence of Ca^2+): No interaction was observed
D63N: S100A4 mutant compromised in the EF2 Ca^2+ binding loop |  | 65 to 70 µM | 0.44 ± 0.01 Ca^2+ per monomer | 0.54 ± 0.01 Ca^2+ per monomer | 68 ± 1 µM | 65 ± 3 µM | 500 s^− 1 | reduction in Ca^2+ affinity ([2]; compromised EF2 site, as suggested by ITC): 30 -fold
